The source of these data is patent US4762828A, “1,2,4-triazolo[4,3-d]-4-azatricyclo-[4.3.1.1^3,8 ]undecane and 3-substituted derivatives, and intermediates thereof” (Pennwalt Corporation, priority 1987, dated 1988).

The subject of series [1] is carrageenan-induced rat paw edema. The series is described as follows: carrageenan-induced rat paw edema assay (anti-inflammatory activity). The format is in vivo, male Sprague Dawley rats. Conditions: for % Inhibition: oral, control 63.9% edema; for anti-inflammatory activity (in words): administered orally. The procedure:
Anti-inflamatory activity was determined by carragenaninduced paw edema of laboratory rats. Groups of six male Sprague Dawley rats orally received compound suspended in a 1% aqueous solution of Methocel brand methylcellulose. Control rats received a 0.5% aqueous solution of Methocel only. Two hours later, each rat received a subcutaneous injection of 0.1 ml of a 1% homogenized suspension of carrageenan in the plantar surface of the right hind paw.
Immediately, the volume of the paw was measured by immersing it in mercury to above the lateral mateolus. The mercury in a glass cylinder 25 mm in diameter and 60 mm deep was connected at the bottom on the cylinder by a column of water to a Statham transducer (model P23BB), range 0-5 cm of mercury pressure. The volume was recorded electronically on a Beckman recorder, R511. Three hours later, the inflamed paw volume was measured again, and the change in volume was recorded for each group. Indomethacin,a known anti-inflamatory agent, was included as a standard.

For series [2], the system named is mice. The experiment in a line: estimated LD50. The conditions noted are these: ip.
The next series in a line: minimal neurotoxic dose. Details: species or system mice. The conditions noted are these: mouse, in vivo, ip.
Series [3] deals with mice. The experiment in a line: antihypoxia test: survival duration of mice in a normobaric atmosphere of 96% nitrogen and 4% oxygen at 35° C. It is filed as in vivo. Conditions: for Survival Minutes, Compound: N=5, 35° C. Here is the method: N^1 = Number of mice in each group
NS = Not significant, P >0.05
ip = intraperitoneal administration
iv = intravenous administration
The antihypoxia test measures the survival duration of mice in a normobaric atmosphere consisting of 96% nitrogen and 4% oxygen, at 35° C. The mice are considered dead when they stop visible respiration. The test indicates potential clinical utility in situations of central nervous system hypoxia, such as occurs following stroke, cardiac arrest, and traumatic accidents.

With `c1nnc2n1C1CC3CC(CC2C3)C1` [Example 1, 1,2,4-Triazolo[4,3-d]-4-azatricyclo[4.3.1.1^3,8]undecane Hydroiodide], the “% Inhibition” value in series [1] (25.0 mg/kg) is listed as 17.0%; in series [1] (50.0 mg/kg, Hydroiodide) it was 43.4%; in series [1] (100.0 mg/kg), 56.6%. Also, the “anti-inflammatory activity (in words)” value in series [1] is on record as “demonstrated activity”.

As for `c1nnc2n1C1CC3CC(CC2C3)C1` [Example 2, 1,2,4-Triazolo[4,3-d]-4-azatricyclo[4.3.1.1^3,8]undecane], the “Estimated LD50” value with mice [2] is recorded as 12 mg/kg. Further, in the series “minimal neurotoxic dose”, the minimal neurotoxic dose came to 6 mg/kg. Also, the “Survival Minutes, Compound” value in the series with mice [3] (1 mg/kg iv, control 2.36, P NS) came out at 2.34 min; in the series with mice [3] (1.5 mg/kg iv, control 2.30, P NS) it was 3.02 min; with mice [3] (6 mg/kg ip, control 2.08, P =0.04) it was 5.78 min. Moreover, the “prolonged the survival time of mice in the antihypoxia test” value with mice [3] (6 mg/kg (i.p.)) is “more than 2 fold”. The figures for the “% Inhibition” value in series [1] (25.0 mg/kg) and in series [1] (50.0 mg/kg) were 17.0% and 28.3%, respectively. The “anti-inflammatory activity (in words)” value in series [1] is “demonstrated activity”.

Turning to `COc1ccc2c(c1)c(CC(=O)O)c(C)n2C(=O)c1ccc(Cl)cc1` [Indomethacin, reference compound], the “% Inhibition” value in series [1] (4.0 mg/kg) came out at 52.8%.
